From DBAASP
≈ marks a conversion by molar mass, not a printed value.

What was measured:
Experiment in all cases: ≥ marks a high value that may be exact or a test limit, other limits are often not marked, values filed in µg/mL are converted to µM
[1] = test system: Cronobacter muytjensii ATCC 51329
[2] = test system: Cronobacter sakazakii ATCC BAA-894
[3] = test system: Cronobacter sakazakii DPC 6440
[4] = test system: Cronobacter sakazakii DSM 4485
[5] = test system: Escherichia coli NCIMB 11843
Escherichia coli O111 = test system: Escherichia coli O111
Escherichia coli O157:H7 = test system: Escherichia coli O157:H7
[6] = test system: Klebsiella pneumoniae NCIMB 13218
[7] = test system: Listeria monocytogenes NCTC 11994
[8] = test system: Pseudomonas fluorescens NCIMB 9046
[9] = test system: Pseudomonas putida ATCC 49128
[10] = test system: Salmonella enterica subsp. enterica serovar Typhimurium DT104
[11] = test system: Salmonella enterica subsp. enterica serovar Typhimurium LT2
[12] = test system: Staphylococcus aureus NCTC 7428
[13] = test system: Staphylococcus aureus NCTC 8325-4
[14] = test system: Staphylococcus aureus Newman
[15] = test system: Staphylococcus aureus RF122
[16] = test system: Staphylococcus aureus RN4220
[17] = test system: Staphylococcus aureus SA113
Escherichia coli MG1655 = test system: Escherichia coli MG1655
[18] = test system: Pseudomonas aeruginosa PA7
[19] = test system: Pseudomonas aeruginosa PAO1
[20] = test system: Staphylococcus aureus NCTC 8325
Acinetobacter baumannii = test system: Acinetobacter baumannii
Enterobacter cloacae = test system: Enterobacter cloacae
[21] = test system: Enterococcus faecalis ATCC 19433
[22] = test system: Escherichia coli ATCC 25922
Escherichia coli BL21 = test system: Escherichia coli BL21
[23] = test system: Escherichia coli KpC+001812446
[24] = test system: Klebsiella pneumoniae ATCC 13883
[25] = test system: Klebsiella pneumoniae KpC+001825971
[26] = test system: Pseudomonas aeruginosa ATCC 27853
[27] = test system: Pseudomonas aeruginosa H1001
[28] = test system: Pseudomonas aeruginosa PA14
[29] = test system: Staphylococcus aureus ATCC 12600
[30] = test system: Staphylococcus aureus ATCC 25923
Staphylococcus aureus = test system: Staphylococcus aureus
[31] = test system: Acinetobacter baumannii NM109
[32] = test system: Acinetobacter baumannii NM124
[33] = test system: Acinetobacter baumannii NM35
[34] = test system: Acinetobacter baumannii NM75
[35] = test system: Acinetobacter baumannii NM8
[36] = test system: Candida albicans ATCC 90028
[37] = test system: Enterococcus faecalis ATCC 29212
[38] = test system: Escherichia coli ATCC 25726
[39] = test system: Klebsiella pneumoniae ATCC 700603
[40] = test system: Staphylococcus aureus 145/08
[41] = test system: Staphylococcus epidermidis RP62A/1
[42] = test system: Staphylococcus epidermidis RP62A
[43] = test system: Staphylococcus epidermidis T37/8
[44] = test system: Staphylococcus epidermidis T6/19
[45] = test system: Stenotrophomonas maltophilia B32/1
[46] = test system: Stenotrophomonas maltophilia B32/4
[47] = test system: Stenotrophomonas maltophilia B5/5
[48] = test system: Stenotrophomonas maltophilia B6/2
[49] = test system: Stenotrophomonas maltophilia U8908

`CC[C@H](C)[C@H](N)C(=O)N[C@@H](CCCCN)C(=O)N[C@@H](Cc1cnc[nH]1)C(=O)N[C@@H](CCC(N)=O)C(=O)NCC(=O)N[C@@H](CC(C)C)C(=O)N1CCC[C@H]1C(=O)N[C@@H](CCC(N)=O)C(=O)N[C@@H](CCC(=O)O)C(=O)O` [IKHQGLPQE] showed an MIC [1] of at least 625 µM, an MIC [2] of at least 625 µM and an MIC [3] of at least 625 µM. It also gave an MIC [4] of at least 625 µM, an MIC [5] of at least 1250 µM and an MIC (Escherichia coli O111) of at least 1910 µM. For the same molecule, the MIC (Escherichia coli O157:H7) was at least 1910 µM, the MIC [6] was at least 1250 µM and the MIC [7] was at least 953 µM. It also gave an MIC [8] of at least 1250 µM, an MIC [9] of at least 953 µM and an MIC [10] of at least 1910 µM. The MIC [11] was at least 1250 µM, the MIC [12] was at least 1910 µM and the MIC [13] was at least 1250 µM. It also gave an MIC [14] of at least 1250 µM, an MIC [15] of at least 1250 µM and an MIC [16] of at least 1250 µM. For the same molecule, the MIC [17] was at least 1250 µM.
`CC[C@H](C)[C@H](NC(=O)[C@@H](N)CCCCN)C(=O)N1CCC[C@H]1C(=O)N1CCC[C@H]1C(=O)N[C@H](C(=O)N[C@H](C(=O)N[C@@H](CCCCN)C(=O)N[C@@H](CC(=O)O)C(=O)N[C@H](C(=O)N[C@@H](CC(C)C)C(=O)N[C@@H](CCCCN)C(=O)N[C@@H](CCCCN)C(=O)N[C@H](C(=O)N[C@@H](C)C(=O)N[C@@H](CCCCN)C(=O)NCC(=O)N[C@H](C(=O)N[C@@H](CC(C)C)C(=O)N[C@@H](CO)C(=O)N[C@@H](C)C(=O)N[C@H](C(=O)N[C@@H](C)C(=O)NCC(=O)N[C@@H](C)C(=O)N[C@@H](CC(C)C)C(=O)N[C@@H](CO)C(=O)O)C(C)C)C(C)C)C(C)C)[C@@H](C)O)C(C)C)C(C)C` [KIPPVVKDTLKKVAKGVLSAVAGALS] was tested, and the MIC (Escherichia coli MG1655) was 2 µM (≈ 5.18 µg/mL), the MIC [18] was 16 µM (≈ 41.4 µg/mL) and the MIC [19] was 16 µM (≈ 41.4 µg/mL). The MIC [20] was at least 181 µM.
Work on `CC[C@H](C)[C@H](NC(=O)[C@H](CCCCN)NC(=O)[C@H](CC(C)C)NC(=O)[C@H](CCCN=C(N)N)NC(=O)[C@H](CC(C)C)NC(=O)[C@H](CCCCN)NC(=O)[C@@H](N)CCCCN)C(=O)N[C@@H](C)C(=O)N[C@@H](Cc1ccccc1)C(=O)N[C@@H](CCCCN)C(=O)O` [KKLRLKIAFK] yielded an MIC (Acinetobacter baumannii) of at least 32 µM, an MIC (Enterobacter cloacae) of at least 32 µM and an MIC [21] of 5.66 µM (≈ 7.04 µg/mL). It also gave an MIC [22] of 16 µM (≈ 19.9 µg/mL), an MIC (Escherichia coli BL21) of 4 µM (≈ 4.98 µg/mL) and an MIC [23] of 22.6 µM (≈ 28.2 µg/mL). For the same molecule, the MIC [24] was at least 32 µM, the MIC [25] was at least 32 µM and the MIC [26] was over 32 µM. It also gave an MIC [27] of 20 µM (≈ 24.9 µg/mL), an MIC [28] of at least 32 µM and an MIC [19] of 32 µM (≈ 39.8 µg/mL). The MIC [29] was at least 32 µM, the MIC [30] was over 32 µM and the MIC (Staphylococcus aureus) was over 32 µM.
`CC[C@H](C)[C@H](NC(=O)[C@H](C)NC(=O)[C@@H](NC(=O)[C@H](C)NC(=O)CNC(=O)[C@H](CCCCN)NC(=O)[C@@H](NC(=O)[C@H](C)NC(=O)CNC(=O)[C@H](CCCCN)NC(=O)[C@H](CC(C)C)NC(=O)[C@@H](NC(=O)[C@H](CCCCN)NC(=O)[C@H](CCCCN)NC(=O)[C@H](CC(C)C)NC(=O)[C@@H](NC(=O)[C@H](CCCCN)NC(=O)[C@H](CCCCN)NC(=O)[C@@H](NC(=O)[C@H](CCCCN)NC(=O)[C@@H]1CCCN1C(=O)[C@H](CO)NC(=O)[C@H](CC(C)C)NC(=O)[C@H](CCCCN)NC(=O)[C@@H](N)CC(C)C)[C@@H](C)O)[C@@H](C)O)C(C)C)[C@@H](C)CC)[C@@H](C)CC)C(=O)N[C@@H](C)C(=O)N[C@@H](CO)C(=O)N[C@@H](CCSC)C(=O)N[C@@H](C)C(=O)O` [LKLSPKTKKTLKKVLKGAIKGAIAIASMA] showed an MIC [31] of 5 µM (≈ 15 µg/mL), an MIC [32] of 2.5 µM (≈ 7.52 µg/mL) and an MIC [33] of 2.5 µM (≈ 7.52 µg/mL). The MIC [34] was 2.5 µM (≈ 7.52 µg/mL), the MIC [35] was 2.5 µM (≈ 7.52 µg/mL) and the MIC [36] was at least 80 µM. For the same molecule, the MIC [37] was 5 µM (≈ 15 µg/mL), the MIC [38] was 2.5 µM (≈ 7.52 µg/mL) and the MIC [39] was 5 µM (≈ 15 µg/mL). It also gave an MIC [26] of 10 µM (≈ 30.1 µg/mL), an MIC [40] of 2.5 µM (≈ 7.52 µg/mL) and an MIC [30] of 2.5 µM (≈ 7.52 µg/mL). It also gave an MIC [41] of 1.25 µM (≈ 3.76 µg/mL), an MIC [42] of 1.25 µM (≈ 3.76 µg/mL) and an MIC [43] of 1.25 µM (≈ 3.76 µg/mL). It also gave an MIC [44] of 1.25 µM (≈ 3.76 µg/mL), an MIC [45] of 2.5 µM (≈ 7.52 µg/mL) and an MIC [46] of 1.25 µM (≈ 3.76 µg/mL). For the same molecule, the MIC [47] was 2.5 µM (≈ 7.52 µg/mL), the MIC [48] was 1.25 µM (≈ 3.76 µg/mL) and the MIC [49] was 2.5 µM (≈ 7.52 µg/mL).
